Measured values taken from patent US8835415B2, “Standardized composition, method of manufacture and use in the resolution of RNA virus infection” (priority 2009, dated 2014).

System: H1N1 virus, Resistant strain (6706)
Assay: microbe, parasite or virus in culture
Format: cell-based
Conditions: Influenza A virus, H1N1, MDCK

CCOC(=O)C1=C[C@@H](OC(CC)CC)[C@H](NC(C)=O)[C@@H](N)C1 [Tamiflu, Oseltamivir]
EC50: > 5 µM
